# Test results reported in patent publication US20230374015A1, “INHIBITORS OF FIBROBLAST GROWTH FACTOR RECEPTOR KINASES” (Kinnate Biopharma Inc., priority 2020, published 2023).
# pIC50: −log10 of the molar value.
# Biological target: FGFR2 (Homo sapiens, UniProt P21802)
# Test: FGFR2 Kinase Protocol - Condition 2 (Reaction Biology HotSpot radiometric kinase assay, no preincubation)
# Type: biochemical
# Conditions: poly[Glu:Tyr] (4:1) 0.2 mg/ml, ATP 100 microM, 2 hr room temperature
# How it was run: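 Ten-point, 3-fold compound dilutions were tested against wildtype or V564F FGFR2 with 100 µM ATP (33P-labelled), no preincubation, and 0.2 mg/ml poly[Glu:Tyr] (4:1) substrate. After 2 hr at room temperature, incorporation was read on P81 filter paper; IC50 fitted from activity remaining relative to vehicle.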
# Sequence of FGFR2 (P21802 22-821): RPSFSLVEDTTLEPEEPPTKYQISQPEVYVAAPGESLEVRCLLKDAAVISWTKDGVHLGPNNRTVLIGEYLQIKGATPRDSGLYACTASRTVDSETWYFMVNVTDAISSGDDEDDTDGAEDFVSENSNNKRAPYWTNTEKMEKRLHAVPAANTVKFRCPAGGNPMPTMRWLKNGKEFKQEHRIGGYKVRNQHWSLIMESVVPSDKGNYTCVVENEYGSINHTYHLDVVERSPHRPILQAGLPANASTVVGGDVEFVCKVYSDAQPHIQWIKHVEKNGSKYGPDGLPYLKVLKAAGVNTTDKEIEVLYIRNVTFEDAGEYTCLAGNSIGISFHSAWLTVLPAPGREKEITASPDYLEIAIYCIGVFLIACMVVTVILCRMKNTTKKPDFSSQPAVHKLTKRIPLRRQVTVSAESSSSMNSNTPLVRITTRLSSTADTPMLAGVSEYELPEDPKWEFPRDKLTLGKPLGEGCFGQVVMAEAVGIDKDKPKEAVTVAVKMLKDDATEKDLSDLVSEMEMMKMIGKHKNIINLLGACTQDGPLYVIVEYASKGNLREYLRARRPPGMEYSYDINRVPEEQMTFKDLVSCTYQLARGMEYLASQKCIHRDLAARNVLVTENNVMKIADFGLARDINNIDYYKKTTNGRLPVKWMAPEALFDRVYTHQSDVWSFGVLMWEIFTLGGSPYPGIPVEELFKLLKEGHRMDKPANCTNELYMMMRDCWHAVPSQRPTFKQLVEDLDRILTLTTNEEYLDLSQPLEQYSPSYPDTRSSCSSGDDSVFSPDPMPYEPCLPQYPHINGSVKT
row,Compound,pIC50
1,"C=CC(=O)N1C[C@@H](n2nc(C#Cc3cc4ncn(C)c4cc3F)c3c(N)ncnc32)C[C@@H]1COC [Example 62, 1-[(2R,4S)-4-[4-Amino-3-[2-(6-fluoro-1-methyl-1,3-benzodiazol-5-yl)ethynyl]pyrazolo[3,4-d]pyrimidin-1-yl]-2-(methoxymethyl)pyrrolidin-1-yl]prop-2-en-1-one]",≥ 7.00
2,"C=CC(=O)N1C[C@@H](n2nc(C#Cc3cc4ncn(CC)c4cc3Cl)c3c(N)ncnc32)C[C@@H]1COC [Example 92, 1-[(2R,4S)-4-[4-Amino-3-[2-(6-chloro-1-ethyl-1,3-benzodiazol-5-yl)ethynyl]pyrazolo[3,4-d]pyrimidin-1-yl]-2-(methoxymethyl)pyrrolidin-1-yl]prop-2-en-1-one]",≥ 7.00
3,"C=CC(=O)N1C[C@@H](n2nc(C#Cc3c(F)cc4c(ncn4C)c3F)c3c(N)nccc32)C[C@@H]1COC(F)(F)F [Example 60, 1-[(2R,4S)-4-[4-Amino-3-[2-(4,6-difluoro-1-methyl-1,3-benzodiazol-5-yl)ethynyl]pyrazolo[4,3-c]pyridin-1-yl]-2-[(trifluoromethoxy)methyl]pyrrolidin-1-yl]prop-2-en-1-one]",≥ 7.00
4,"C=CC(=O)N1C[C@@H](n2nc(C#Cc3cc4ncn(CC)c4cc3F)c3c(N)ncnc32)C[C@@H]1C [Example 163, 1-((2S,4S)-4-(4-amino-3-((1-ethyl-6-fluoro-1H-benzo[d]imidazol-5-yl)ethynyl)-1H-pyrazolo[3,4-d]pyrimidin-1-yl)-2-methylpyrrolidin-1-yl)prop-2-en-1-one]",≥ 7.00
5,"C=CC(=O)N1C[C@@H](n2nc(C#Cc3cc4ncn(C)c4cc3Cl)c3c(N)ncnc32)C[C@@H]1C [Example 164, 1-((2S,4S)-4-(4-amino-3-((6-chloro-1-methyl-1H-benzo[d]imidazol-5-yl)ethynyl)-1H-pyrazolo[3,4-d]pyrimidin-1-yl)-2-methylpyrrolidin-1-yl)prop-2-en-1-one]",≥ 7.00
6,"C=CC(=O)N1C[C@@H](n2nc(C#Cc3cc4ncn(C(F)F)c4cc3F)c3c(N)nccc32)C[C@@H]1COC [Example 83, 1-[(2R,4S)-4-(4-Amino-3-[2-[1-(difluoromethyl)-6-fluoro-1,3-benzodiazol-5-yl]ethynyl]pyrazolo[4,3-c]pyridin-1-yl)-2-(methoxymethyl)pyrrolidin-1-yl]prop-2-en-1-one]",≥ 7.00
7,"C=CC(=O)N1C[C@@H](n2nc(C#Cc3c(F)cc4nn(C)cc4c3F)c3c(N)nccc32)C[C@@H]1COC [Example 45, 1-((2R,4S)-4-(4-amino-3-((4,6-difluoro-2-methyl-2H-indazol-5-yl)ethynyl)-1H-pyrazolo[4,3-c]pyridin-1-yl)-2-(methoxymethyl)pyrrolidin-1-yl)prop-2-en-1-one]",6.00 to 7.00
8,"C=CC(=O)N1C[C@@H](n2nc(C#Cc3c(F)cc4c(ncn4C)c3F)c3c(N)ncnc32)C[C@@H]1COC(F)F [Example 139, 1-[(2R,4S)-4-{4-Amino-3-[2-(4,6-difluoro-1-methyl-1,3-benzodiazol-5-yl)ethynyl]pyrazolo[3,4-d]pyrimidin-1-yl}-2-[(difluoromethoxy)methyl]pyrrolidin-1-yl]prop-2-en-1-one]",≥ 7.00
9,"C=CC(=O)N1C[C@@H](n2nc(C#Cc3c(F)cc4nc(C)[nH]c4c3F)c3c(N)nccc32)C[C@@H]1COC [Example 95, 1-[(2R,4S)-4-[4-Amino-3-[2-(4,6-difluoro-2-methyl-1H-1,3-benzodiazol-5-yl)ethynyl]pyrazolo[4,3-c]pyridin-1-yl]-2-(methoxymethyl)pyrrolidin-1-yl]prop-2-en-1-one]",≥ 7.00
10,"C=CC(=O)N1CC[C@H](n2nc(C#Cc3cc4ncn(C)c4cc3Cl)c3c(N)nccc32)C1 [Example 137, (S)-1-(3-(4-Amino-3-((6-chloro-1-methyl-1H-benzo[d]imidazol-5-yl)ethynyl)-1H-pyrazolo[4,3-c]pyridin-1-yl)pyrrolidin-1-yl)prop-2-en-1-one]",≥ 7.00
11,"C=CC(=O)N1C[C@@H](n2nc(C#Cc3c(F)cc4c(ncn4C4CC4)c3F)c3c(N)nccc32)C[C@@H]1COC [Example 73, 1-[(2R,4S)-4-[4-Amino-3-[2-(1-cyclopropyl-4,6-difluoro-1,3-benzodiazol-5-yl)ethynyl]pyrazolo[4,3-c]pyridin-1-yl]-2-(methoxymethyl)pyrrolidin-1-yl]prop-2-en-1-one; formic acid]",≥ 7.00
12,"C=CC(=O)N1C[C@@H](n2nc(C#Cc3c(F)cc4[nH]c(C)nc4c3F)c3c(N)ncnc32)C[C@@H]1COC [Example 94, 1-[(2R,4S)-4-[4-Amino-3-[2-(4,6-difluoro-2-methyl-1H-1,3-benzodiazol-5-yl)ethynyl]pyrazolo[3,4-d]pyrimidin-1-yl]-2-(methoxymethyl)pyrrolidin-1-yl]prop-2-en-1-one]",≥ 7.00
13,"[2H]C([2H])([2H])OC[C@H]1C[C@H](n2nc(C#Cc3c(F)cc4c(ncn4C)c3F)c3c(N)ncnc32)CN1C(=O)C=C [Example 134, 1-[(2R,4S)-4-[4-Amino-3-[2-(4,6-difluoro-1-methyl-1,3-benzodiazol-5-yl)ethynyl]pyrazolo[3,4-d]pyrimidin-1-yl]-2-[(2H3)methoxymethyl]pyrrolidin-1-yl]prop-2-en-1-one]",≥ 7.00
14,"C=CC(=O)N1C[C@@H](n2nc(C#Cc3cc4ncn(CC)c4cc3F)c3c(N)ncnc32)C[C@@H]1COC(F)(F)F [Example 71, 1-[(2R,4S)-4-[4-amino-3-[2-(1-ethyl-6-fluoro-1,3-benzodiazol-5-yl)ethynyl]pyrazolo[3,4-d]pyrimidin-1-yl]-2-[(trifluoromethoxy)methyl]pyrrolidin-1-yl]prop-2-en-1-one]",≥ 7.00
15,"C=CC(=O)N1C[C@@H](n2nc(C#Cc3cc4ncn(C)c4c(F)c3Cl)c3c(N)nccc32)C[C@@H]1CC#N [Example 174, 2-[(2R,4S)-4-{4-Amino-3-[2-(6-chloro-7-fluoro-1-methyl-1,3-benzodiazol-5-yl)ethynyl]pyrazolo[4,3-c]pyridin-1-yl}-1-(prop-2-enoyl)pyrrolidin-2-yl]acetonitrile]",≥ 7.00
16,"C=CC(=O)N1C[C@@H](n2nc(C#Cc3ccc4nn(C)cc4c3)c3c(N)ncnc32)C[C@@H]1COC [Example 41, 1-[(2R,4S)-4-[4-amino-3-[2-(2-methylindazol-5-yl)ethynyl]pyrazolo[3,4-d]pyrimidin-1-yl]-2-(methoxymethyl)pyrrolidin-1-yl]prop-2-en-1-one]",6.00 to 7.00
17,"C=CC(=O)N1C[C@@H](n2nc(C#Cc3cc4ncn(C5CC5)c4cc3F)c3c(N)nccc32)C[C@@H]1C(F)F [Example 182, 1-((2R,4S)-4-(4-amino-3-((1-cyclopropyl-6-fluoro-1H-benzo[d]imidazol-5-yl)ethynyl)-1H-pyrazolo[4,3-c]pyridin-1-yl)-2-(difluoromethyl)pyrrolidin-1-yl)prop-2-en-1-one]",≥ 7.00
18,"C=CC(=O)N1C[C@@H](n2nc(C#Cc3cc4ncn(C)c4cc3F)c3c(N)nccc32)C[C@@H]1C(F)F [Example 181, 1-((2R,4S)-4-(4-amino-3-((6-fluoro-1-methyl-1H-benzo[d]imidazol-5-yl)ethynyl)-1H-pyrazolo[4,3-c]pyridin-1-yl)-2-(difluoromethyl)pyrrolidin-1-yl)prop-2-en-1-one]",≥ 7.00
19,"C=CC(=O)N1C[C@@H](n2cc(C#Cc3cc4nc(C)[nH]c4cc3Cl)c3c(N)ncnc32)C[C@@H]1COC [Example 89, 1-[(2R,4S)-4-[4-Amino-5-[2-(6-chloro-2-methyl-1H-1,3-benzodiazol-5-yl)ethynyl]pyrrolo[2,3-d]pyrimidin-7-yl]-2-(methoxymethyl)pyrrolidin-1-yl]prop-2-en-1-one]",≥ 7.00
20,"C=CC(=O)N1CC[C@H](n2nc(C#Cc3cc4ncn(C)c4cc3Cl)c3c(N)ncnc32)C1 [Example 147, 1-[(3S)-3-{4-Amino-3-[2-(6-chloro-1-methyl-1,3-benzodiazol-5-yl)ethynyl]pyrazolo[3,4-d]pyrimidin-1-yl}pyrrolidin-1-yl]prop-2-en-1-one]",≥ 7.00
21,"C=CC(=O)N1CC[C@H](n2nc(C#Cc3cc4ncn(CC)c4cc3Cl)c3c(N)ncnc32)C1 [Example 132, 1-[(3S)-3-{4-Amino-3-[2-(6-chloro-1-ethyl-1,3-benzodiazol-5-yl)ethynyl]pyrazolo[3,4-d]pyrimidin-1-yl}pyrrolidin-1-yl]prop-2-en-1-one]",≥ 7.00
22,"C=CC(=O)N1C[C@@H](n2nc(C#Cc3ccc4c(cnn4CC)c3)c3c(N)nccc32)C[C@@H]1COC [Example 37, 1-((2R,4S)-4-(4-amino-3-((1-ethyl-1H-indazol-5-yl)ethynyl)-1H-pyrazolo[4,3-c]pyridin-1-yl)-2-(methoxymethyl)pyrrolidin-1-yl)prop-2-en-1-one]",≥ 7.00
23,"C=CC(=O)N1C[C@@H](n2nc(C#Cc3c(F)cc4c(nc(C)n4CC)c3F)c3c(N)ncnc32)C[C@@H]1COC [Example 32, 1-((2R,4S)-4-(4-amino-3-((1-ethyl-4,6-difluoro-2-methyl-1H-benzo[d]imidazol-5-yl)ethynyl)-1H-pyrazolo[3,4-d]pyrimidin-1-yl)-2-(methoxymethyl)pyrrolidin-1-yl)prop-2-en-1-one]",≥ 7.00
24,"C=CC(=O)N1CC[C@H](n2nc(C#Cc3cc4ncn(CC)c4c(F)c3F)c3c(N)nccc32)C1 [Example 155, 1-[(3S)-3-{4-Amino-3-[2-(1-ethyl-6,7-difluoro-1,3-benzodiazol-5-yl)ethynyl]pyrazolo[4,3-c]pyridin-1-yl}pyrrolidin-1-yl]prop-2-en-1-one]",≥ 7.00

# Same assay, conditions: poly[Glu:Tyr] (4:1) 0.2 mg/ml, ATP 100 microM, 2 hr room temperature, given as numeric bound
row,Compound,pIC50
1,"C=CC(=O)N1C[C@H](c2nc(C#Cc3cc4ncn(C5CC5)c4cc3F)c3c(N)nccn23)C[C@@H]1COC [Example 202, 1-[(2R,4R)-4-{8-Amino-1-[2-(1-cyclopropyl-6-fluoro-1,3-benzodiazol-5-yl)ethynyl]imidazo[1,5-a]pyrazin-3-yl}-2-(methoxymethyl)pyrrolidin-1-yl]prop-2-en-1-one]",< 6.30
